Measurements reported in the supplement of paper PMC10307832.

Tests used:
Assay in all cases: relative viability (nuclei count vs DMSO), 5 days (fraction); higher = more cells survive
Idelalisib + Palbociclib = compound: CC[C@H](Nc1ncnc2[nH]cnc12)c1nc2cccc(F)c2c(=O)n1-c1ccccc1 [Idelalisib] + CC(=O)c1c(C)c2cnc(Nc3ccc(N4CCNCC4)cn3)nc2n(C2CCCC2)c1=O [Palbociclib] (partner 0.5 µM)
In short: (§1)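 Lung cancer cell lines, seeded in 1536-well plates, were treated the following day by pin tool with a single drug or with five library-drug doses (not always all listed) in √10 steps on top of a fixed anchor-drug dose. Cells were fixed and nuclei stained in one step after 5 days, and nuclei were counted. Relative viability is the nuclei count for treated wells divided by that for vehicle wells, reported as medians of duplicate plates.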

Idelalisib + Olaparib = compound: CC[C@H](Nc1ncnc2[nH]cnc12)c1nc2cccc(F)c2c(=O)n1-c1ccccc1 [Idelalisib] + O=C(c1cc(Cc2n[nH]c(=O)c3ccccc23)ccc1F)N1CCN(C(=O)C2CC2)CC1 [Olaparib] (partner 8 µM)
In short: as §1

Idelalisib + Navitoclax = compound: CC[C@H](Nc1ncnc2[nH]cnc12)c1nc2cccc(F)c2c(=O)n1-c1ccccc1 [Idelalisib] + CC1(C)CCC(c2ccc(Cl)cc2)=C(CN2CCN(c3ccc(C(=O)NS(=O)(=O)c4ccc(N[C@H](CCN5CCOCC5)CSc5ccccc5)c(S(=O)(=O)C(F)(F)F)c4)cc3)CC2)C1 [Navitoclax] (partner 0.5 µM)
In short: as §1

Pemetrexed + Tozasertib = compound: Nc1nc2[nH]cc(CCc3ccc(C(=O)N[C@@H](CCC(=O)O)C(=O)O)cc3)c2c(=O)[nH]1 [Pemetrexed] + Cc1cc(Nc2cc(N3CCN(C)CC3)nc(Sc3ccc(NC(=O)C4CC4)cc3)n2)n[nH]1 [Tozasertib] (partner 0.1 µM)
In short: as §1

Cell Line UMC-11 has a relative viability (Idelalisib + Palbociclib; first compound 0.04 µM) of 0.335, a relative viability (Idelalisib + Palbociclib; first compound 0.1265 µM) of 0.33 and a relative viability (Idelalisib + Palbociclib; first compound 0.4 µM) of 0.298. For the same cell line, the relative viability (Idelalisib + Palbociclib; first compound 1.265 µM) was 0.298, the relative viability (Idelalisib + Palbociclib; first compound 4 µM) was 0.261 and the relative viability (Idelalisib + Olaparib; first compound 0.04 µM) was 0.416. For the same cell line, the relative viability (Idelalisib + Olaparib; first compound 0.1265 µM) was 0.347, the relative viability (Idelalisib + Olaparib; first compound 0.4 µM) was 0.407 and the relative viability (Idelalisib + Olaparib; first compound 1.265 µM) was 0.631. For the same cell line, the relative viability (Idelalisib + Olaparib; first compound 4 µM) was 0.351, the relative viability (Idelalisib + Navitoclax; first compound 0.04 µM) was 0.366 and the relative viability (Idelalisib + Navitoclax; first compound 0.1265 µM) was 0.326. The relative viability (Idelalisib + Navitoclax; first compound 0.4 µM) was 0.274, the relative viability (Idelalisib + Navitoclax; first compound 1.265 µM) was 0.291 and the relative viability (Idelalisib + Navitoclax; first compound 4 µM) was 0.336. It also gave a relative viability (Pemetrexed + Tozasertib; first compound 0.002 µM) of 0.196, a relative viability (Pemetrexed + Tozasertib; first compound 0.006325 µM) of 0.217 and a relative viability (Pemetrexed + Tozasertib; first compound 0.02 µM) of 0.199. For the same cell line, the relative viability (Pemetrexed + Tozasertib; first compound 0.06325 µM) was 0.202 and the relative viability (Pemetrexed + Tozasertib; first compound 0.2 µM) was 0.208.
